Reference: EP3723746B1, “PHENOXY ACIDS FOR THE TREATMENT OF NEUROMUSCULAR DISORDERS” (NMD Pharma A/S, priority 2017, dated 2019)

Molecular target: T1, human CIC-1 channels (Homo sapiens, UniProt P35523)
T1 construct: host or cells: CHO cells constitutively expressing human ClC-1
Test: Automated patch-clamp on the human isoform of CIC-1 expressed in CHO cells
Assay type: cell-based
Details: compound added intracellularly vs control cell patches; positive shift reflects CIC-1 inhibition
Protocol: The investigatory goal of these experiments was to evaluate how compounds affect the open probability and current amplitude of human CIC-1 channels expressed in CHO cells. Experiments were performed using an automated patch clamp system that allowed high throughput testing of whole cell patches together with both intracellular and extracellular addition of compound.
Automated whole cell patch clamp experiments were performed with the Qpatch 16 system (Sophion Bioscience, Ballerup, Denmark) at room temperature. Data acquisition and analysis were performed in the Qassay software (ver. 5.6, Odense).
To evoke CIC-1 currents in whole cell patches, the membrane potential was initially stepped from a holding potential of -30 mV to +60 mV for 100 ms and then to various test voltages (sweeps) ranging from +120 mV to -140 mV in steps of 20 mV for 300 ms. To obtain tail currents, the membrane potential was stepped to -100 mV after each test voltage for 300 ms and then relaxed to -30 mV for 2 sec between sweeps (Figure 3). I/V relationships for whole cell instant and steady state current amplitudes were obtained by plotting average current densities at the beginning and at the end of the 300 ms step against the membrane potential (Figure 4).
In order to determine the relative overall open probability (P0), the instantaneous tail currents were normalized to the maximal tail current obtained following the most positive voltage step and plotted against the test voltage. Plots of normalized tail currents from each whole cell patch were then fitted to a Boltzmann function allowing determination of half activation voltages (V1/2, Figure 5).
For automated patch clamp experiments extracellular solutions contained: 2 mM CaCl2, 1 mM MgCl2, 10 mM HEPES, 4 mM KCI, 145 mM NaCl, 10 mM Glucose, pH adjusted to 7.4 with NaOH (2 M). Osmolality adjusted to ~320 using sucrose.
Intracellular solutions contained: 80 mM CsF, 60 mM CsCI, 5/1 mM KOH/EGTA, 10 mM HEPES, 10 mM NaCl, pH adjusted to 7.2 with NaOH (2 M). Osmolality adjusted to ~320 mOsm using sucrose.
Cells used in patch clamp experiments were Chinese hamster ovary cells (CHO) constitutively expressing human CIC-1 channels. The amino acid sequence encoded by the cDNA used to create this cell line was identical to the translated sequence for GenBank accession number NM_000083.2. Cells were produced by Charles River (Catalogue CT6175, Cleveland OH, USA) in a cryopreserved format. Experiments were performed on the cells directly after thawing (3 × 10^6 cells used in each experiment).
To evaluate the compound effect on CIC-1, when applied directly to the intracellular side of the cell membrane, the half activation voltage, V1/2, was determined from whole cell patches with compound added to the intracellular solution and then compared to V1/2 determined from control cell patches with only vehicle added to the intracellular solution. Additionally, the effect of extracellular added compound was evaluated by determine V1/2 and steady state current amplitudes before and after exchanging the extracellular solution to contain compound.
The difference in half activation voltage of CIC-1 channels, ΔV1/2, was determined as the difference between the cell patches treated intracellularly with compound and control cells patches and is reported in Table 4 below. A positive shift in ΔV1/2 is reflecting CIC-1 channel inhibition by the tested compound. P-values of <0.05 is considered significant. […]

T1 sequence (P35523 whole entry): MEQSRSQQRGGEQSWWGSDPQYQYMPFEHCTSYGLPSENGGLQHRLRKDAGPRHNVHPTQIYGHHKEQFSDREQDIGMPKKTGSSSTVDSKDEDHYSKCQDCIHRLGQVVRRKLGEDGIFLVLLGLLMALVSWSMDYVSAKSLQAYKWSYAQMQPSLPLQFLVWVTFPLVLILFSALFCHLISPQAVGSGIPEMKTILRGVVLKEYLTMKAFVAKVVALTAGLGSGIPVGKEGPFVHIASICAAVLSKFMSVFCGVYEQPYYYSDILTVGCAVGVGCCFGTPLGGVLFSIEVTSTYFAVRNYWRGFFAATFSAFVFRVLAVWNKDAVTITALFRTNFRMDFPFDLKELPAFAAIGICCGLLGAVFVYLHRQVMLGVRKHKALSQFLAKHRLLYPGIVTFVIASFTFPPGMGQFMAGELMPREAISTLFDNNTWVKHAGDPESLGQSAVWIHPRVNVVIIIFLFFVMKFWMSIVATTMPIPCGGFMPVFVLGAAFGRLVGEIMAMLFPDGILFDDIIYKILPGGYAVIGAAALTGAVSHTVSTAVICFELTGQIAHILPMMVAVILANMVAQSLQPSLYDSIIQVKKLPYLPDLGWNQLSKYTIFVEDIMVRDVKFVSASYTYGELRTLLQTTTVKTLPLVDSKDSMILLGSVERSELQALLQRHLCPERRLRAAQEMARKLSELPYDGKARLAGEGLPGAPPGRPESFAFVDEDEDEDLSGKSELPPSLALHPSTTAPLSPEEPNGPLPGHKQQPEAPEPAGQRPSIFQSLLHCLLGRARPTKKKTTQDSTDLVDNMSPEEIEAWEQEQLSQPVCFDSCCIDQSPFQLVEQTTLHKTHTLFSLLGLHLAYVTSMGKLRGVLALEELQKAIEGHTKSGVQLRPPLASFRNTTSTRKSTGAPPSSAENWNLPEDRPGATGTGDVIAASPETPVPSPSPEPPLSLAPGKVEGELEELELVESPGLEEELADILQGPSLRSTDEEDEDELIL

- ΔV1/2: 7.7 mV
SMILES: C#Cc1cc(Br)ccc1O[C@@H](C)C(=O)O [Compound A-19, (2S)-2-(4-bromo-2-ethynylphenoxy)propanoic acid]
